Assays:
Type in all cases: biochemical
recombinant human ALDH2 = recombinant human ALDH2 (Homo sapiens (Human), UniProt P05091); test: ALDH2 assay (NADH formation); details: 60 min pre-incubation, 150 uM formaldehyde, 2.5 mM NAD+; read-out: IC50 HALDH2
Method: Standard ALDH2 reaction mixtures contained 150 uM formaldehyde, 2.5 mM NAD^+, 10 mM MgCl2 and 10 nM recombinant human ALDH2 in 50 mM Hepes buffer, pH 7.4, 0.01% Tween 20 in a final volume of 50 ul using 384-well plates. After 60 min of pre-incubation of compound with ALDH2 and formaldehyde, the reaction was started by adding NAD+ and the reaction mixture was allowed to proceed for 90 minutes. Activity of the enzyme was determined by monitoring NADH formation using Perkin-Elmer Envision Reader with excitation and emission wavelengths set at 340 and 460 nm, respectively.
(§1) Note: […] refers to the concentration of a compound that inhibits a reaction by 50%. In the case of competitive inhibition, IC50=2Ki when the substrate is present at the Km concentration, as per the relationship: Ki=IC50/[1+(substrate concentration/Km)].

HMAO-A = HMAO-A (Homo sapiens (Human), UniProt P21397); test: MAO-A assay (luminogenic MAO substrate); details: microsome MAO-A, 160 uM substrate
Method: (§2) MAO assays included luminogenic MAO substrate, reaction buffers, Luciferin Detection and the reconstitution buffer with eserase. Standard MAO reaction mixtures included microsome contained MAO-A (2 ug) or MAO-B (10 ug), 160 uM substrate for MAO-A or 16 uM substrate for MAO-B, MAO-A buffer (100 mM Hepes buffer, pH 7.5, 5% glycerol) or MAO-B buffer (100 mM Hepes, pH 7.5, 5% glycerol, 10% dimethyl sulfoxide) in a final volume of 30 ul. After 20 minutes of pre-incubation of the enzyme with compounds, the reaction was initiated by adding enzyme substrate and the reaction was allowed to proceed for 60 minutes. Reconstituted Luciferin Detection Reagent (30 ul) was then added is added to simultaneously stop the MAO reaction and convert the methyl ester derivative to luciferin and produce light. The amount of light produced is directly proportional to the activity of MAO. The mixtures were further incubated for 20 minutes and activity of the enzyme was determined using Perkin-Elmer Envision Reader.
as §1

HMAO-B = HMAO-B (Homo sapiens (Human), UniProt P27338); test: MAO-B assay (luminogenic MAO substrate); details: microsome MAO-B, 16 uM substrate
Method: as §2, §1

Sequence of HMAO-A (P21397 whole entry): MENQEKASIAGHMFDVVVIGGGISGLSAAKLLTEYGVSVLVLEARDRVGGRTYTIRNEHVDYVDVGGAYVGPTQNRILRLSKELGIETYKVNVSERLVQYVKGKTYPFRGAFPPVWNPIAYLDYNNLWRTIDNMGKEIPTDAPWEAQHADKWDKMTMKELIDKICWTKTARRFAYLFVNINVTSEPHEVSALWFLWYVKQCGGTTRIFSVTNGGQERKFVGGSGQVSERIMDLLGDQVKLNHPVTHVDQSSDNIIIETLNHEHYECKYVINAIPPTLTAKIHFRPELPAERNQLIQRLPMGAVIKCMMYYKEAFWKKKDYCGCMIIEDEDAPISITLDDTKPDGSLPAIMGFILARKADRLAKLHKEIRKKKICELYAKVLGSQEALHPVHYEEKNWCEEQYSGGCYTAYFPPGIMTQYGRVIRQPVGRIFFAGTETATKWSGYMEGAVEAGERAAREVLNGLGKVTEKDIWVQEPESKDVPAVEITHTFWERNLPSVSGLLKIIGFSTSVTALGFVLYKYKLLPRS
Sequence of HMAO-B (P27338 whole entry): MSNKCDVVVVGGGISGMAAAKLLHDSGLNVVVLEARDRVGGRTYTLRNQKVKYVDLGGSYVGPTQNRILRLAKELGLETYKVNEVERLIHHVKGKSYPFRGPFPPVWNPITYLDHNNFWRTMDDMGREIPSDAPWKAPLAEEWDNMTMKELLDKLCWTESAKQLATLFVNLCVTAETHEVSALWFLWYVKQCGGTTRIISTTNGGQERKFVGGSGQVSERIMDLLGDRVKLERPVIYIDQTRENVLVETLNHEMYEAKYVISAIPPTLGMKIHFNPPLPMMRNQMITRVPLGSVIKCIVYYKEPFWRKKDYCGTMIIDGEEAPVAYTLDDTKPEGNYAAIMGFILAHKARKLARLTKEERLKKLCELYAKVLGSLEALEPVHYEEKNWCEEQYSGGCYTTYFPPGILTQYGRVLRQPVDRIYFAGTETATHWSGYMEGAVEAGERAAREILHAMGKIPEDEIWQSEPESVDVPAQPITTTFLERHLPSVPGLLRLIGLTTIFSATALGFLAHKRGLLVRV
Sequence of recombinant human ALDH2 (P05091 18-517): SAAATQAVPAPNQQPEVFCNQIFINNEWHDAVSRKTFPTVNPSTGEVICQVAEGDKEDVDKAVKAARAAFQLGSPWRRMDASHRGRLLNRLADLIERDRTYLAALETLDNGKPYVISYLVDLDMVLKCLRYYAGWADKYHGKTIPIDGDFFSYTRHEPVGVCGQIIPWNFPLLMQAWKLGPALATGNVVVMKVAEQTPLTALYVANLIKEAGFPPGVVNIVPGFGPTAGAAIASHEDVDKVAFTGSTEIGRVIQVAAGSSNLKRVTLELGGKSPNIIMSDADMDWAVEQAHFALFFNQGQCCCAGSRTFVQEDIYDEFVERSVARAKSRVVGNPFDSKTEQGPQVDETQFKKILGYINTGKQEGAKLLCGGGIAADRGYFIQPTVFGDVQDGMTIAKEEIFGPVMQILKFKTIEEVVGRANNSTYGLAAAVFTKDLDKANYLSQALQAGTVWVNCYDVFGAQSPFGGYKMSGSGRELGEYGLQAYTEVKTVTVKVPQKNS

SMILES | IC50 (recombinant human ALDH2) [µM] | IC50 (HMAO-A) [µM] | IC50 (HMAO-B) [µM]
Cn1ccc(-c2ccc(CNC(=O)c3c(Cl)cccc3Cl)cc2)cc1=O [Compound 9, 2,6-dichloro-N-(4-(1-methyl-2-oxo-1,2-dihydropyridin-4-yl)benzyl)benzamide] | 2.09 | > 130 | > 130
Cc1cccc(Cl)c1C(=O)NCc1ccc(-c2cc[nH]c(=O)c2)cc1 [Compound 4, 2-chloro-6-methyl-N-(4-(2-oxo-1,2-dihydropyridin-4-yl)benzyl)benzamide] | 0.023 | > 130 | > 130
O=C(NCc1ccc(-c2cc[nH]c(=O)c2)cc1)c1cccc(F)c1Cl [Compound 3, 2-chloro-3-fluoro-N-(4-(2-oxo-1,2-dihydropyridin-4-yl)benzyl)benzamide] | 0.215 | > 130 | > 130
Cc1cc(-c2ccc(CNC(=O)c3c(Cl)cccc3Cl)cc2)cc(=O)[nH]1 [Compound 6, 2,6-dichloro-N-[4-(6-methyl-2-oxo-1,2-dihydro-pyridin-4-yl)-benzyl]-benzamide] | 1.11 | > 130 | > 130
COCCOc1cc(Cl)c(C(=O)NCc2ccc(-c3cc[nH]c(=O)c3)cc2)c(Cl)c1 [Compound 1, 2,6-dichloro-4-(2-methoxyethoxy)-N-(4-(2-oxo-1,2-dihydropyridin-4-yl)benzyl)benzamide] | 0.063 | > 130 | > 130
O=C(NCc1ccc(-c2cc[nH]c(=O)c2)cc1)c1c(F)cccc1Cl [Compound 11, 2-chloro-6-fluoro-N-(4-(2-oxo-1,2-dihydropyridin-4-yl)benzyl)benzamide] | 0.379 | > 130 | > 130
Cc1cc(CNC(=O)c2c(Cl)cccc2Cl)ccc1-c1cc[nH]c(=O)c1 [Compound 8, 2,6-dichloro-N-(3-methyl-4-(2-oxo-1,2-dihydropyridin-4-yl)benzyl)benzamide] | 0.48 | > 130 | > 130
O=C(NCc1ccc(-c2cc(=O)[nH]cc2F)cc1)c1c(Cl)cccc1Cl [Compound 13, 2,6-dichloro-N-(4-(5-fluoro-2-oxo-1,2-dihydropyridin-4-yl)benzyl)benzamide] | 0.025 | > 130 | > 130
O=C(NCc1ccc(-c2cc[nH]c(=O)c2)cc1)c1c(F)cccc1F [Compound 10, 2,6-difluoro-N-(4-(2-oxo-1,2-dihydropyridin-4-yl)benzyl)benzamide] | 0.89 | > 130 | > 130
Cc1cccc(C)c1C(=O)NCc1ccc(-c2cc[nH]c(=O)c2)cc1 [Compound 5, 2,6-dimethyl-N-(4-(2-oxo-1,2-dihydropyridin-4-yl)benzyl)benzamide] | 0.166 | > 130 | > 130
O=C(NCc1ccc(-c2cc[nH]c(=O)c2)cc1F)c1c(Cl)cccc1Cl [Compound 12, 2,6-dichloro-N-(2-fluoro-4-(2-oxo-1,2-dihydropyridin-4-yl)benzyl)benzamide] | 0.304 | > 130 | > 130
O=C(NCc1ccc(-c2cc[nH]c(=O)c2)cc1)c1c(F)ccc(F)c1Cl [Compound 7, 2-chloro-3,6-difluoro-N-(4-(2-oxo-1,2-dihydropyridin-4-yl)benzyl)benzamide] | 0.464 | > 130 | > 130

— US9000015B2, “Compounds for the treatment of addiction” (Gilead Sciences, Inc., priority 2011, dated 2015)
